Test results from patent US20240197700A1, “Methods and Compositions for Treating Lysosomal Storage Disorders” (Sanford Health, priority 2021, published 2024).

Legend:
[1] = test system: Cln2^R207X mice; test: Tremor index score on force plate actimeter in Cln2^R207X mice; type: in vivo, mouse; conditions: for tremor index score: 10 weeks of age
Protocol: Specific experimental details are included in figure legends. In general, after collection and preparation, MEFs and PNCs were dosed with vehicle or AF38469 (40 nM, 400 nM. or 4 μM) on DIV3 and DIV5. On DIV7, cells were treated with the following dyes: Hoechst 33342 (1:1000 dilution), LysoTrackerT™ Red DND-99 (1:10,000 dilution), fixed, and imaged. Mice were given vehicle or AF38469 (78.125 μg/ml, 3.125 μg/ml, 0.3125 μg/ml or 0.03125 μg/ml equating approximately to 250 μg/mouse/day, 10 μg/mouse/day, 1 μg/mouse/day, and […], respectively, given a mouse's daily water intake of approximately 3.2 ml per day) in drinking water beginning at wean. Body weight was measured bi-weekly, and a force actimeter test was performed on Cln2^R207X mice at 10 weeks of age. Body weight was measured every month for Cln3^Δex7/8 mice. At 11 and 16 weeks of age, respectively, Cln2^R207X and Cln3^Δex7/8 mice along with age matched wild type control mice were CO2 euthanized and intracardially perfused with PBS. Brains were collected and placed on a 1 mm sagittal brain block. Brains were sliced at the midline and 3 mm right of the midline. One hemisphere was fixed in 4% PFA and sectioned at 50 microns on a vibratome. Immunohistochemistry was performed on free-floating sections. For mitochondrial ATP synthase subunit C (SubC), glial fibrillary acidic protein (GFAP), and cluster of differentiation 68 (CD68) immunolabeling, primary antibodies included anti-SubC (Abcam, ab181243; 1:1000), anti-GFAP (Dako, Z0334; 1:5000), anti-CD68 (AbD Serotec, MCA1957; 1:2000), and secondary antibodies included anti-rabbit biotinylated (Vector Labs, BA-1000 1:1000) and anti-rat (Vector Labs, BA-9400 1:1000). Coverslips were mounted on slides using antifade-mounting media and were stored in the dark before imaging. Sections were imaged and analyzed using an Aperio Digital Pathology Slide Scanner (AT2) and associated software. Images were extracted from S1BF of the somatosensory cortex and the VPM/VPL of the thalamus, with multiple images taken of multiple tissues from each animal.
Short-term chronic treatment with AF38469 reduced tremor phenotype in Cln2^R207X mice. Beginning at wean, wild type and Cln2^R207X mice were treated with vehicle (0.2408% DMSO) or AF38469 (0.03125 μg/ml, 0.3125 μg/ml, 3.125 μg/ml, 78.125 μg/ml) continuously through the drinking water. At 10 weeks of age, wild type and Cln2^R207X mice were evaluated on the force plate actimeter. Evaluation of tremors with the force plate actimeter software produces a tremor index score based on the tremor frequency 5-10 Hz (A), 10-15 Hz (B), 15-20 Hz (C) and 20-25 Hz (D). Data was analyzed with Graphpad. Two-way ANOVA. Mean±S.E.M. Dunnett's multiple comparisons test. *p<0.05, **p<0.01, ***p<0.001, ****p<0.0001. […]

[2] = Stability of semaglutide in solution (vehicle formulation); type: physicochemical; conditions: 4° C.
Protocol: In in vitro models, semaglutide (Creative Peptides, Catalog #910463-68-2) was tested in concentrations of 10 nM, 100 nM, and 1 μM in 1% DMSO. Vehicle treated cells were dosed with 1% DMSO. In in vivo models, semaglutide (Creative Peptides, Catalog #910463-68-2) was tested in concentrations of 2.571 μg/mouse and 25.71 μg/mouse prepared using the vehicle formulation for a total injection volume of 0.2 ml. Compound was stable in solution for 56 days at 4° C. Semaglutide was utilized at 98% HPLC purity.

Row | Molecule | tremor index score ([1]; 5-10 Hz, vs vehicle Cln2^R207X) | tremor index score ([1]; 10-15 Hz, 0.3125 μg/ml) | tremor index score ([1]; 15-20 Hz and 20-25 Hz, 0.03125 μg/ml, 0.3125 μg/ml, 3.125 μg/ml) | tremor index scores ([1]; lower concentrations, summary statement) | stable in solution [2]
1 | Cc1cccc(NC(=O)c2ccc(C(F)(F)F)cc2C(=O)O)n1 [AF38469, 2-((6-methylpyridin-2-yl)carbamoyl)-5-(trifluoromethyl)benzoic acid] | had no impact | significantly reduced | significantly reduced | significantly reduce | –
2 | semaglutide | – | – | – | – | 56 days
